Results on one substance are retold here after PMC8966731 (2022).

Bridge positions count the residues as written; N and C are the ends. Square brackets hold non-standard residues; d marks the D form.

This data set relates to SARS-CoV-2 M^pro. The conditions noted are these: 37 °C, up to 1 h.

“AcyLQYAVLRHKRREC ({CH2CO}-[dY]LQYAVLRHKRREC-NH2; thioether N-14; SMILES CC(C)C[C@@H]1NC(=O)[C@H](C(C)C)NC(=O)[C@H](C)NC(=O)[C@H](Cc2ccc(O)cc2)NC(=O)[C@H](CCC(N)=O)NC(=O)[C@H](CC(C)C)NC(=O)[C@@H](Cc2ccc(O)cc2)NC(=O)CSC[C@@H](C(N)=O)NC(=O)[C@H](CCC(=O)O)NC(=O)[C@H](CCCNC(=N)N)NC(=O)[C@H](CCCNC(=N)N)NC(=O)[C@H](CCCCN)NC(=O)[C@H](Cc2c[nH]cn2)NC(=O)[C@H](CCCNC(=N)N)NC1=O)”: the cleaved bond entry is given as “Gln3-Tyr4, minor, 1 h”.
